# Experiments:
# [1] = test system: Pex7 homozygous hypomorphic animals (Pex7^neo/neo); assay: Sub-chronic (9 weeks) dosing with PPI-1040: plasmalogen levels in plasma, liver, lung; format: in vivo, mouse; conditions: 89.7 mg/Kg intraperitoneal, 3 doses per week
# Experimental: Pex7 homozygous hypomorphic animals)(Pex7^neo/neo) were used as a model of rhizomelic chondrodysplasia punctata to further test the ability of PPI-1040 to augment plasmalogen levels in a deficient system, following 9 weeks of sub-chronic dosing. PPI-1040 was stored in a sealed ampoule in solution with dichloromethane under argon gas until immediately before use. At time of treatment the ampoule was opened and dichloromethane was evaporated off under nitrogen gas for 10 minutes. Neobee M-5 was then added and the solution vortexed to generate a 22.4 mg/mL formulation. Animals were dosed via intraperitoneal injections with doses adjusted by weight to ensure an 89.7 mg/Kg dose to each animal. Animals were sacrificed following 9 weeks of treatment with 3 doses administered per week (Monday, Wednesday and Friday). Blood samples were collected in EDTA tubes and then spun down in a clinical centrifuge. Plasma samples were stored at −80° C. until thawed for analysis. Tissue samples were harvested and flash frozen in liquid nitrogen and then stored at −80° C. All tissue samples were homogenized using liquid nitrogen, generating a fine powder. Extraction and plasmalogen analysis by LC-MS/MS was carried out as described above.
# [2] = Oral bioavailability study with 13C-labeled PPI-1050: labeled glycerolipids in serum; format: in vivo, mouse; conditions: wild-type C57Bl/6 mice
# Experimental: A ^13C-labeled version of PPI-1040, called PPI-1050, was generated to evaluate the ability of the intact compound to cross the gut boundary and enter the bloodstream intact. PPI-1050 contains carbon-13 labels on the three glycerol carbons and 3 carbons of the sn-1 palmitic acid. Wild-type C57/Bl6 mice were treated with a single oral dose of 100 mg/kg PPI-1050 (formulated in Neobee-M5 with 0.1% thioglycerol) or vehicle. Animals were then sacrificed and blood harvested by cardiac puncture at 1, 3 and 6 hours post-treatment (n=3). Serum was then analyzed for presence of incorporation of the label into glycerolipids. Serum extraction was performed on 20 μL aliquots in 1.4 ml Thermo matrix tubes. […] A 100 μL aliquot of the ethyl acetate layer was analyzed using FI-MS/MS on a API4000™ mass spectrometer (Applied Biosystems) coupled with Agilent 1100 HPLC pump and auto sampler. […] The parent PlsEtn mass was determined by incorporating the intact number of 13C labels in the predicted parent together with the corresponding daughter ion (sn2 fatty acid loss) to obtain the quantitative MS/MS transition pair. To confirm the ethanolamine group remained intact upon absorption we also analyzed serum for the presence of labeled alkyl-acyl and vinyl-acyl glycerols using FI-MS/MS analysis in positive mode. All transitions measured can be found in Table 1 below. […]
# [3] = test system: wild-type mouse hippocampal brain slices; assay: Long term potentiation (LTP) on multi-electrode array; format: cell-based; conditions: 0.5 μM, monitored for 60 mins, vs vehicle (0.2% DMSO)
# Experimental: It is hypothesized that brain plasmalogen levels affect neurotransmission. Accordingly, in this study, wild-type mouse hippocampal brain slices were incubated in artificial cerebro-spinal fluid containing either vehicle or PPI-1040. The slices were incubated on a multi-electrode array (MEA) with electrodes spaced 100 μm apart. A single electrode was selected to stimulate Schaffer collaterals cells which triggered field excitatory post-synaptic potential (fEPSP) in the stratum radiatum. After 10 minutes of control recording, in the presences of either PPI-1040 or vehicle, long term potentiation (LTP) was induced by a single train of 10 bursts composed of 4 stimuli at 100 Hz each with a 200 millisecond interval between.
# [4] = test system: Pex7 homozygous hypomorphic animals (Pex7^neo/neo); assay: 2 week comparison of plasmalogen precursors: plasmalogen levels in plasma and liver (LC-MS); format: in vivo, mouse
# Experimental: Pex7 homozygous hypomorphic animals (Pex7^neo/neo) were used as a model of rhizomelic chondrodysplasia punctata (RCDP). Mice were dosed with either PPI-1011 or PPI-1040 at equimolar concentrations of 100 mg/Kg and 89.7 mg/Kg respectively. PPI-1011 was formulated in Neobee M-5, at a concentration of 12.5 mg/mL and stored at −20° C. until the first treatment day after which point the remaining formulation was stored at 4° C. Oral gavage volumes were adjusted by mouse weight to ensure a 100 mg/kg dose. PPI-1040 was stored in a sealed ampoule in solution with dichloromethane under argon gas until immediately before use. At time of treatment the ampoule was opened and dichloromethane was evaporated off under nitrogen gas for 10 minutes. Neobee M-5 was then added and the solution and vortexed to generate a 22.4 mg/mL formulation. Animals were dosed via intraperitoneal injections with doses adjusted by weight to ensure an 89.7 mg/Kg dose to each animal. Animals were sacrificed 24 hours after the ninth treatment (week 1-Monday to Friday and week 2-Monday to Thursday). Blood samples were collected in EDTA tubes and then spun down in a clinical centrifuge. Plasma samples were stored at −80° C. until thawed for analysis. Tissue samples were harvested and flash frozen in liquid nitrogen and then stored at −80° C. All tissue samples were homogenized using liquid nitrogen, generating a fine powder.
# Plasma aliquots of 20 μL were analyzed, while tissues were aliquoted with anti-static polypropylene disposable milligram scoops prior to analysis. Water (200 μL) was added and samples were ice bath sonicated for 30 mins prior to the addition of 600 μL of ethyl acetate. Samples were mixed at 2000 rpm for 15 mins followed by a 10 min centrifugation at 3500 rpm. Tissue samples were diluted into an ethyl acetate (1:4) containing labeled internal standards [^13C-PlsEtn (C37^13C6H74NO7P) and ^13C-PtdEtn (C24^13C19H74NO8P)]. Water (80 μL) was added and samples were again stirred at 2000 rpm for 15 mins followed by a 2 min centrifugation at 3500 rpm. High-throughput analysis method was based on multiple reaction monitoring of one parent/fragment transition for the ion pairs, performed using liquid chromatography-mass spectrometry.
# [5] = 89.7 mg/Kg intraperitoneal, 2 weeks
# [6] = PPI-1011 100 mg/Kg oral or PPI-1040 89.7 mg/Kg intraperitoneal, 2 weeks
smiles,measurement,setting,value
"CC/C=C\C/C=C\C/C=C\C/C=C\C/C=C\C/C=C\CCC(=O)OC(CO/C=C\CCCCCCCCCCCCCC)COP1(=O)NCCO1 (centres unmarked) [PPI-1040, 1-(((Z)-hexadec-1-en-1-yl)oxy)-3-((2-oxido-1,3,2-oxazaphospholidin-2-yl)oxy)propan-2-yl (4Z,7Z,10Z,13Z,16Z,19Z)-docosa-4,7,10,13,16,19-hexaenoate]",16:0 plasmalogen pool in serum (FIG. 5: plasma),[1],elevated to levels significantly above control
same,liver levels of the target plasmalogen (16:0/22:6),[1],elevated to above control levels
same,liver total 16:0 plasmalogen pool,[1],elevated to above control levels
same,lung levels of the target plasmalogen (16:0/22:6),[1],elevated to control levels
same,lung total 16:0 plasmalogen pool,[1],elevated to control levels
same,target 16:0/22:6 ethanolamine plasmalogen in serum (FIG. 5: plasma),[1],elevated to levels significantly higher than control
same,oral bioavailability,[2]; single oral dose 100 mg/kg PPI-1050,orally bioavailable and crossed the gut lining intact
same,intact compound with closed phosphoethanolamine ring in serum,"[2]; single oral dose 100 mg/kg PPI-1050, 1, 3, 6 hours",not detectable in any samples
same,long term potentiation (LTP) of fEPSP,[3],increased LTP compared to vehicle treated controls
same,bioavailability and conversion to endogenous ethanolamine plasmalogen,[4]; [5],bioavailable in the mouse
same,total 16:0 plasmalogen pool in plasma,[4]; [5],augmented the total 16:0 plasmalogen to control levels
same,16:0 plasmalogen pool in liver,[4]; [6],augmented the 16:0 plasmalogen pool in the liver to control levels
same,target plasmalogen (16:0/22:6) levels in liver,[4]; [6],to levels above control
same,levels of the target plasmalogen (16:0/22:6) in the plasma,"[4]; PPI-1040 89.7 mg/Kg intraperitoneal, 2 weeks (9 treatments)",2 × above control
